Structures are written as SMILES. Values after ≈ are worked out from the molar mass of the structure shown.

These results are taken from ChEMBL document CHEMBL1133946, “An approach to the identification of potent inhibitors of influenza virus fusion using parallel synthesis methodology” (Bioorg Med Chem Lett, 2001).

Assay [1] in a line: Compound tested for inhibition of hemolysis. The class given is functional.
In assay [2] the test system is unidentified influenza virus. Put plainly: Compound tested for inhibition of influenza virus infectivity in cell culture determined by plaque reduction assay;Inactive. The class given is functional, organism-based.
Assay [3] concerns unidentified influenza virus. Description: Cytotoxicity of compound was measured against Influenza virus;in range of 8-9. The class given is functional.
Assay [4] has as its system unidentified influenza virus. Put plainly: Cytotoxicity of compound was measured against Influenza virus. The class given is functional.
In assay [5] the test system is unidentified influenza virus. Description: Compound tested for inhibition of influenza virus infectivity in cell culture determined by plaque reduction assay. The class given is functional, organism-based.
The mark [6] stands for this setting: unidentified influenza virus, read-out: CC50.
The mark [7] stands for this setting: unidentified influenza virus, read-out: EC50.

In the case of `CC1(C)C[C@H](O)C[C@](C)(C/N=C(\S)c2cccc(Cl)c2)C1`, in assay [1], the 50% inhibitory concentration (IC50) amounted to 2.5 µg/mL (≈ 7.67 µM). For the same molecule, the EC50 entry in assay [2] is listed as “Not Active”. This molecule also displayed a cytotoxic concentration (CC50) in assay [3] of 8 µg/mL (≈ 24.5 µM).

In the case of `Cc1ccc(O)c(C(=O)NC[C@]2(C)C[C@H](O)CC(C)(C)C2)c1`, the CC50 in assay [4] (setting [6]) came to 50 µg/mL (≈ 164 µM). In assay [1], this molecule gave an IC50 of 0.15 µg/mL (≈ 0.491 µM). Also, the EC50 in assay [5] (setting [7]) came out at 0.136 µg/mL (≈ 0.445 µM).

As for `CC1(C)C[C@H](O)C[C@@](C)(CNC(=S)c2cccc(Cl)c2)C1`, the CC50 in assay [4] (setting [6]) came out at 20 µg/mL (≈ 61.4 µM). In assay [1], this molecule displayed an IC50 of 0.047 µg/mL (≈ 0.144 µM). Further, the EC50 in assay [5] (setting [7]) was 0.02 µg/mL (≈ 0.0614 µM).

`Cc1ccc(O)c(C(=O)NC[C@@]2(C)C[C@H](O)CC(C)(C)C2)c1`: in assay [4] (setting [6]), the half-maximal cytotoxic concentration (CC50) was 70 µg/mL (≈ 229 µM). For the same molecule, the IC50 in assay [1] worked out at 0.033 µg/mL (≈ 0.108 µM). Further, the EC50 in assay [5] (setting [7]) is 0.037 µg/mL (≈ 0.121 µM).

For `C[C@@H]1CCC[C@@H]2C[C@@H](NC(=O)c3cc(Cl)c(N)cc3O)CCN21`, the CC50 in assay [4] (setting [6]) is > 100 µg/mL. Further, the IC50 in assay [1] is 0.44 µg/mL (≈ 1.3 µM). Further, the EC50 in assay [5] (setting [7]) amounted to 2 µg/mL (≈ 5.92 µM).

Regarding `CC1(C)C[C@H](O)C[C@@](C)(CNC(=O)c2cc(Cl)ccc2O)C1` (stereo in doubt; 10b), the CC50 in assay [4] was >100 µg/mL. The molecule further displayed an IC50 in assay [1] of 0.25 µg/mL (≈ 0.767 µM). This molecule showed an EC50 in assay [5] of 0.13 µg/mL (≈ 0.399 µM).

As for `CC1(C)C[C@H](O)C[C@@](C)(CNC(=O)c2cc(Cl)ccc2O)C1` (stereo in doubt; 11b), the 50% cytotoxic concentration (CC50) in assay [4] (setting [6]) was 80 µg/mL (≈ 246 µM). For the same molecule, in assay [1], the IC50 was 0.025 µg/mL (≈ 0.0767 µM). In assay [5], this molecule came in with an EC50 of 0.03 µg/mL (≈ 0.0921 µM).
